# According to publication PMC5833004 (ACS Central Science, 2018):
# “Also recorded” adds a separate entry of the source.
# Tests used:
# [1] = target: GFP-fused multimerized CBP bromodomain (Homo sapiens, UniProt Q92793); experiment: FRAP assay in U2OS cells, GFP-fused CBP bromodomain; type: cell-based; conditions: compound 1 μM, 2.5 μM SAHA
# bromodomain of CBP = bromodomain of CBP (Homo sapiens, UniProt Q92793); experiment: Alpha Screen assay; type: binding
# LP1 cells = experiment: Cell proliferation, resazurin assay; type: cell-based, human; conditions: 72 h or 144 h
# Kasumi cells = experiment: Cell proliferation, resazurin assay; type: cell-based, human; conditions: 72 h or 144 h
# [2] = test system: MRC5 nontransformed fibroblast; experiment: Cell proliferation, resazurin assay; type: cell-based; conditions: Homo sapiens, MRC5, 72 h, read-out: GI50 MRC5
# HL-60 cells = experiment: Cell proliferation, resazurin assay; type: cell-based; conditions: 144 h
# IRF4 mRNA = experiment: RT-qPCR mRNA transcription in LP1 cells; type: cell-based, human; conditions: 6 h incubation, dose-response
# c-MYC mRNA = experiment: RT-qPCR mRNA transcription in LP1 cells; type: cell-based, human; conditions: 6 h incubation, dose-response
compound,measurement,setting,value
CCOc1ccc(C(C)=O)cc1NC(=O)c1ccc(C)c(NC(=O)c2ccco2)c1 [Compound 7],displacement of GFP-fused CBP bromodomain from chromatin (FRAP),[1],significant displacement
CCOc1ccc(C(C)=O)cc1NC(=O)c1cc(NC(C)=O)cc(NC(=O)c2ccc(OC)c(OC)c2)c1 [Compound 17],displacement of GFP-fused CBP bromodomain from chromatin (FRAP),[1],significant displacement
CCOc1ccc(C(C)=O)cc1NC(=O)Cc1csc(-c2ccc(OC)c(OC)c2)n1 [Compound 6],displacement of GFP-fused CBP bromodomain from chromatin (FRAP),[1],significant displacement
CCOc1ccc(C(C)=O)cc1NC(=O)c1cc(NC(C)=O)cc(NC(=O)c2ccco2)c1 [Compound 16],affinity for CBP bromodomain higher by a factor with respect to BRD4(1),bromodomain of CBP,"more than 10,000"
same,displacement of GFP-fused CBP bromodomain from chromatin (FRAP),[1],significant displacement; also recorded: strongest effect
same,proliferation of LP1 cells,LP1 cells,selectively inhibited the proliferation
same,proliferation of Kasumi cells,Kasumi cells,selectively inhibited the proliferation
same,GI50,[2],> 20 µM
same,proliferation of HL-60 cells,HL-60 cells,selectively inhibited the proliferation
same,IRF4 mRNA level,IRF4 mRNA,reduced
same,c-MYC mRNA level,c-MYC mRNA,reduced
CCOc1ccc(C(C)=O)cc1-c1ccc(N2CCCS2(=O)=O)cc1C [Compound 13],displacement of GFP-fused CBP bromodomain from chromatin (FRAP),[1],significant displacement
